In patent publication US8785459B2, “Quinazoline compounds as kinase inhibitors” (Development Center for Biotechnology, priority 2011, dated 2014):

Columns and labels:
FGFR1 kinase = FGFR1 kinase (Homo sapiens (Human), UniProt P11362); experiment: FGFR1 kinase assay; type: biochemical
Protocol: Inhibition of FGFR1 kinase activity by compounds disclosed herein was quantified by measuring the amount of [^33P] incorporated into the substrate in the presence of a test compound. Briefly, a reaction mixture of 25 μL final volume containing 1 ng of FGFR1 kinase (FGFR1 kinase domain alone, Millipore), 5 μg of the substrate [poly(Glu-Tyr), Sigma], kinase reaction buffer (14 mM MOPS pH 7.0, 0.2 mM EDTA, 0.5% glycerol, 0.001% Brij-35, 0.01% β-mercaptoethanol, 0.1 mg/ml BSA, 100 μM ATP, 0.1 μCi per well [^33P]-γ-ATP (2,500-3,000 Ci/mmol)), and a test compound (100 nM, diluted with 4% DMSO) or DMSO (as the control) was incubated at 30° C. for 60 minutes. The reaction was stopped by adding 5 μL of 3% phosphoric acid solution. The resultant reaction solution was then harvested onto a filter plate (UniFilter-96 GF/B, PerkinElmer), washed 20 times for 5 min with d.d. H2O, and followed by the addition of 30 μL of MicroScint™-20 Cocktail (PerkinElmer). The radioactivity retained on the filter membrane was measured by TopCount™ scintillation detector (PerkinElmer). The results were analyzed by using linear regression software (GraphPad Prism™ 4; GraphPad Software Inc.). IC50 value is defined as the concentration of the test compound which achieves a half-maximal inhibition of the kinase activity.

COLO205 = experiment: Anti-proliferative activity, CellTiter-96 assay, COLO205; type: cell-based; conditions: Homo sapiens, COLO 205, COLO205 cells, 72 hours incubation
Procedure, shortened: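 Cells in DMEM with 10% FCS at 37° C., 5% CO2, plated at 2000 cells/well for 24 h, then exposed to graded compound concentrations for 72 h. CellTiter-96 Aqueous One reagent added for 4.0 h; viability read as absorbance at 490 nm.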

B-Raf = B-Raf (Homo sapiens (Human), UniProt P15056); experiment: Raf kinase assay (B-Raf), [33P] incorporation into MEK1(K97R); type: biochemical; conditions: for inhibition at 1 µM: 1.0 μM compound, read-out: B-Raf inhibition at 1.0 μM
B-Raf, sequence (P15056 whole entry): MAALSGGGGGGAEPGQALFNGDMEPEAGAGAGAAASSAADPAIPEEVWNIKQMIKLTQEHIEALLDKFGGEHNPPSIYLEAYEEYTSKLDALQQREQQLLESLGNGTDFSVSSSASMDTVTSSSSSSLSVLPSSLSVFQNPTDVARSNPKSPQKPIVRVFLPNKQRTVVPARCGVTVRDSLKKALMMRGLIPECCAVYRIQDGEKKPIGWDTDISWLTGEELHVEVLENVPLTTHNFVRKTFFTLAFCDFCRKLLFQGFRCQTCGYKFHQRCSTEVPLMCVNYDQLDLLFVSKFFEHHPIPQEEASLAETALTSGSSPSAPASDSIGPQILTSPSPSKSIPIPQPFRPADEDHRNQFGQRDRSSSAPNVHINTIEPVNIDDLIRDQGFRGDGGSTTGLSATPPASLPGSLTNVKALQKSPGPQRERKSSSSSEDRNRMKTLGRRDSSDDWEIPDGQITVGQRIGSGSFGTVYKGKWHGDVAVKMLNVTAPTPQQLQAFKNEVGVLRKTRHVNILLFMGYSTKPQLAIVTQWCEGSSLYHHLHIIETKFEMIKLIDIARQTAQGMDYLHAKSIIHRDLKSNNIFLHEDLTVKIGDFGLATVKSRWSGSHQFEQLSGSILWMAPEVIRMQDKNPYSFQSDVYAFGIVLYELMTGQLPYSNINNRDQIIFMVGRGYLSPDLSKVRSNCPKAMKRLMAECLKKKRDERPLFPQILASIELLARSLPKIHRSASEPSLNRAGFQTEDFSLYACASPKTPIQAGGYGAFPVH
Procedure, shortened: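 [33P] transfer to kinase-dead MEK1(K97R) substrate (500 ng) measured after 30 min at 30 °C in Tris pH 7.5 buffer containing 8 μM ATP. Enzyme inputs were 2 ng for C-Raf and 5 ng for B-Raf and B-Raf V600E. Duplicate 3-fold serial dilutions gave the half-maximal inhibitory concentration.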

EGFR (T790M) kinase = EGFR (T790M) kinase (Homo sapiens (Human), UniProt P00533, T790M); experiment: EGFR (T790M) kinase assay; type: biochemical
EGFR (T790M) kinase, sequence (P00533 712-979 T790M): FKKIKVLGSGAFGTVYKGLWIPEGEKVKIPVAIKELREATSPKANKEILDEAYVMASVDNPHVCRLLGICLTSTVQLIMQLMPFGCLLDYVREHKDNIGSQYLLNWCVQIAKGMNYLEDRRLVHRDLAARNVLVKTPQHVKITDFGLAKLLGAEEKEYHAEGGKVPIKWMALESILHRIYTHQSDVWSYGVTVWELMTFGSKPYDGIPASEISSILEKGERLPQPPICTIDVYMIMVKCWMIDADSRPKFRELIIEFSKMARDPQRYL
Protocol: C. EGFR (T790M) Kinase Assay
Inhibition of EGFR (T790M) kinase activity by compounds disclosed herein was quantified by measuring the amount of [^33P] incorporated into the substrate in the presence of a test compound. Briefly, a reaction mixture of 25 μL final volume containing 25 ng of EGFR (T790M) kinase (EGFR (T790M) kinase domain alone, Millipore), 5 μg of the substrate [poly(Glu-Tyr), Sigma], kinase reaction buffer (10 mM MOPS pH 7.0, 0.3 mM EDTA, 0.5% glycerol, 0.001% Brij-35, 10 mM MnCl2, 0.1 mg/ml BSA, 100 μM ATP, 0.1 μCi per well [^33P]-γ-ATP (2,500-3,000 Ci/mmol)), and a test compound (100 nM; diluted with 4% DMSO) or DMSO (as the control) was incubated at 30° C. for 60 minutes. The reaction was stopped by adding 5 μL of 3% phosphoric acid solution. The resultant reaction solution was then harvested onto a filter plate (UniFilter-96 GF/B, PerkinElmer), washed 20 times for 5 min with d.d. […] The radioactivity retained on the filter membrane was measured by TopCount™ scintillation detector (PerkinElmer). The results were analyzed by using linear regression software (GraphPad Prism™ 4; GraphPad Software Inc.). The percentage of inhibition of EGFR (T790M) by the test compound was calculated by dividing the retained radioactivity of the test sample with the retained radioactivity of the control sample and shown in Table 4.

FGFR1 kinase, sequence (P11362 478-767): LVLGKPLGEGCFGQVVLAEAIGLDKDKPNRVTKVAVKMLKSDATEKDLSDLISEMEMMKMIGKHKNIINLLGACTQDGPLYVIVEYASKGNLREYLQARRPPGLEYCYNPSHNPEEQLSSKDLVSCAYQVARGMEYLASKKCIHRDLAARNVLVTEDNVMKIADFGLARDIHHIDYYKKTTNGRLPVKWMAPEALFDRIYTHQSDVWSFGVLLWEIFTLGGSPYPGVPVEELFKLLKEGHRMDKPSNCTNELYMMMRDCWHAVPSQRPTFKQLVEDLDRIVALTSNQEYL

IC50 (FGFR1 kinase) [nM]	IC50 (COLO205) [nM]	IC50 (B-Raf) [nM]	inhibition at 1 µM (B-Raf) [%]	inhibition at 1 µM (EGFR (T790M) kinase) [%]	Compound
413	6700 ± 100	30.2	94.2	66	COc1cc(-c2ccc3ncnc(Nc4cccc(O)c4)c3c2)ccc1O [Compound 8, 4-(4-(3-hydroxyphenylamino)quinazolin-6-yl)-2-methoxyphenol]
131	3200 ± 300	16.1	92.6	60	COc1cc(-c2ccc3ncnc(Nc4cc(O)ccc4F)c3c2)ccc1O [Compound 58, 4-(4-(2-fluoro-5-hydroxyphenylamino)quinazolin-6-yl)-2-methoxyphenol]
